Laboratory results reported in patent US4193997A, “Thieno[2,3-c] and [3,2-c]pyridines, process for their preparation and therapeutic applications thereof” (Parcor, priority 1977, dated 1980).

What was measured:
[1] = test system: ovalbumin-induced systemic edema; experiment: Ovalbumin-induced systemic edema method; assay type: in vivo; settings: rats, 100 mg/kg oral one hour before and with ovalbumin
Experimental: Rats are administered a simultaneous intraperitoneal injection of 1 ml ovalbumin and 0.5 ml of a 1% aqueous Evans Blue solution. The animals of the treated group are additionally orally administered 100 mg/kg of the test derivative, one hour prior to ovalbumin administration and then simultaneously with said ovalbumin administration. The intensity of the phenomenon thus induced is rated according to a scale from 1 to 5, according to the progress of the inflammatory syndrome. The determinations are effected after 2 hours and after 3 hours. Thus are determined the mean intensity of the edema and the percent decrease of the edema reaction.

[2] = test system: carrageenin-induced edema; experiment: Localized carrageenin-induced edema method; assay type: in vivo; settings: rats, 100 mg/kg oral one hour before, with, and 1 and 2.5 hours after carrageenin
Experimental: 0.1 ml of a 1% carrageenin solution is injected at time O in the metatarsal flexor muscles of the right hind limb of rats.
The animals of the treated group are additionally orally administered 100 mg/kg of the test derivative, respectively one hour prior to, and then simultaneously with the phlogogenic agent, and then one hour and 2.5 hours thereafter. The determinations effected with a ROCH micrometer at times 0, 1 hr, 2 hrs, 3 hrs and 5 hrs after carrageenin administration make it possible to determine the percent anti-inflammatory activity, as a function of time.

[3] = test system: Red blood cells; experiment: Anti-sludge in vitro, "curative" procedure (protamine sulfate agglomeration of red blood cells); assay type: cell-based, rats; settings: 25 μg; for percent aggregates, size of agglomerates 4: reference tests 11; for percent aggregates, size of agglomerates 3: reference tests 15 or 16; for percent aggregates, size of agglomerates 2: reference tests 19; for percent aggregates, size of agglomerates 1: reference tests 33 (n°3, 4, 6) or 30 (n°11, 12, 17)
Experimental: (§1) Red blood cells of rats are washed three times and diluted to 1/250 concentration in physiological saline. In each of 5 tubes are placed 0.6 ml of this suspension and 0.2 ml physiological saline. Into each tube is then added, respectively, an amount of 0, 25, 50, 100 and 200 μg of the test derivative contained in 0.2 ml of solution. After incubation for one hour at 37° C., 0.2 ml of a solution containing 125 μg/ml protamine sulfate is added thereto, and the resulting material is further incubated for 0.5 hour at 37° C. The red blood cells of each tube are then examined with a Mallasez cell, and the percent free red blood cells (RBC) and the percent agglomerates formed by 2, 3, 4, 5 . . . RBC are noted.
The test was repeated according to a "curative" procedure. The red blood cells were first contacted with the protamine sulfate and, after incubation for 0.5 hour, 0.2 ml containing 25 μg of the test derivative were added thereto, after which the material was further incubated for one hour at 37° C.

[4] = test system: Red blood cells; experiment: Anti-sludge in vitro, "preventive" treatment (protamine sulfate agglomeration of red blood cells); assay type: cell-based, rats; settings: for percent agglomerates formed by 5 RBC: controls 6 or 8; for percent agglomerates formed by 4 RBC: controls 9 or 8; for percent agglomerates formed by 3 RBC: controls 13 or 14; for percent agglomerates formed by 2 RBC: controls 17 or 16; for percent free red blood cells (size 1): controls 32 (n°3, 4, 6) or 30 (n°11, 12, 17)
Experimental: as §1

[5] = test system: A.D.P.-induced blood-platelet aggregation; experiment: A.D.P.-induced blood-platelet aggregation after oral treatment of rats; assay type: in vivo, Wistar rats; settings: Rattus norvegicus, 100 mg/kg oral, 3 hrs after treatment, 10 μM A.D.P. solution, read-out: Percent inhibition of blood-platelet aggregation, A.D.P.
Experimental: (§2) Blood is taken from the jugular vein of Wistar rats. From this citrated blood, and after centrifugation, a plasma containing 600,000±20,000 blood-platelets per mm 3 is reconstituted, which plasma is used in all aggregation determinations.
(§3) 0.4 ml plasma is placed in a siliconized tube provided with a magnet bar which is also siliconized. The tube is introduced into an aggregometer connected to an apparatus which records the optical density variations. When light transmission reaches a stable value, 0.5 ml of a solution containing 10 μM A.D.P. (adenosine diphosphate) is introduced into the tube.
Blood-platelet aggregation then induces an increase of light transmission, followed by a decrease subsequent to the disaggregation stage.
The maximal optical density variation thus determined characterizes the extent of the aggregation.
(§4) Different groups of 20 rats each are used. Each group is orally administered a test derivative, at a dosage of 100 mg/kg. The results obtained during both tests are reported in following Table I which indicates the percent inhibition of blood-platelet aggregation obtained with respect to the reference group, 3 hrs after treatment.

[6] = test system: mice; experiment: Antalgic action, acetic acid method according to Koster, Anderson & de Beer; assay type: in vivo; settings: 100 mg/kg oral, 30 minutes prior to i.p. acetic acid
From the text: (b) Acetic acid method, according to Koster, Anderson & de Beer (Fed. Proced., 18, 1959, 412, 1, 626)
Intraperitoneal injection of a dilute acetic acid solution induces, in mice, characteristic writhing movements which are repeated due to the effect of pain.

[7] = test system: mouse; experiment: Antalgic action, mechanical stimulation method according to Haffner; assay type: in vivo; settings: 100 mg/kg oral
Experimental: (a) Mechanical stimulation method according to Haffner (Deutsch. Wish., 1959, 55, 731-733). This method comprises placing a pressure forceps at the base of the tail of a mouse and recording the number of bites self-inflicted by the animal in its endeavour to remove the forceps. The decrease of the number of bites prior and subsequent to oral administration of the test compound at a dosage of 100 mg/kg provides a measure of the antalgic activity of the derivatives of this invention.

[8] = test system: collagen-induced blood-platelet aggregation; experiment: Collagen-induced blood-platelet aggregation after oral treatment of rats; assay type: in vivo, Wistar rats; settings: Rattus norvegicus, 100 mg/kg oral, 3 hrs after treatment, collagen (bovine tendon extract), read-out: Percent inhibition of blood-platelet aggregation, Collagen
Experimental: as §2, §3
The A.D.P. solution is substituted with a collagen solution (bovine tendon extract).
as §4

Compound	Percent decrease of the edema reaction After 2 hours [1]	Percent decrease of the edema reaction After 3 hours [1]	Percent anti-inflammatory activity after 1 hour [2]	Percent anti-inflammatory activity after 2 hours [2]	Percent anti-inflammatory activity After 3 hours [2]	percent aggregates, size of agglomerates 4 [3]	percent aggregates, size of agglomerates 3 [3]	percent aggregates, size of agglomerates 2 [3]	percent aggregates, size of agglomerates 1 [3]	percent agglomerates formed by 5 RBC ([4]; 25 μg per tube)	percent agglomerates formed by 4 RBC ([4]; 25 μg per tube)	percent agglomerates formed by 3 RBC ([4]; 25 μg per tube)	percent agglomerates formed by 2 RBC ([4]; 25 μg per tube)	percent free red blood cells (size 1) ([4]; 25 μg per tube)	percent agglomerates formed by 5 RBC ([4]; 50 μg per tube)	percent agglomerates formed by 4 RBC ([4]; 50 μg per tube)	percent agglomerates formed by 3 RBC ([4]; 50 μg per tube)	percent agglomerates formed by 2 RBC ([4]; 50 μg per tube)	percent free red blood cells (size 1) ([4]; 50 μg per tube)	percent agglomerates formed by 4 RBC ([4]; 100 μg per tube)	also measured
O=C1NCCc2ccsc21 [Derivative n°12, 7-Oxo-4,5,6,7-tetrahydro-thieno[2,3-c]pyridine]	53%	64%	42%	54%	61%	1%	3%	14%	82%	1%	2%	15%	21%	61%	2%	2%	12%	20%	64%	2%	percent agglomerates formed by 3 RBC ([4]; 100 μg per tube): 2%; percent agglomerates formed by 2 RBC ([4]; 100 μg per tube): 18%; percent free red blood cells (size 1) ([4]; 100 μg per tube): 78%; percent agglomerates formed by 4 RBC ([4]; 200 μg per tube): 1%; percent agglomerates formed by 3 RBC ([4]; 200 μg per tube): 1%; percent agglomerates formed by 2 RBC ([4]; 200 μg per tube): 9%; percent free red blood cells (size 1) ([4]; 200 μg per tube): 89%; inhibition at 100 mg/kg [5]: 62.7%; percent antalgia [6]: 77%; mean percent antalgia after 30 min. [7]: 81%; mean percent antalgia after 1 hr [7]: 78%; mean percent antalgia after 2 hrs [7]: 73%; mean percent antalgia after 3 hrs [7]: 67%; inhibition at 100 mg/kg [8]: 90.6%
CC(=O)N1CC(c2ccccc2)c2ccsc2C1=O (stereo not shown) [Derivative n°17, 4-Phenyl-6-acetyl-7-oxo-4,5,6,7-tetrahydro-thieno[2,3-c]-pyridine]	46%	58%	37%	49%	54%	1%	2%	16%	80%	3%	3%	13%	23%	58%	1%	2%	4%	28%	65%	1%	percent aggregates, size of agglomerates 5 ([3]; reference tests 8 or 9): 1%; percent agglomerates formed by 5 RBC ([4]; 100 μg per tube): 1%; percent agglomerates formed by 3 RBC ([4]; 100 μg per tube): 4%; percent agglomerates formed by 2 RBC ([4]; 100 μg per tube): 14%; percent free red blood cells (size 1) ([4]; 100 μg per tube): 80%; percent agglomerates formed by 4 RBC ([4]; 200 μg per tube): 1%; percent agglomerates formed by 3 RBC ([4]; 200 μg per tube): 2%; percent agglomerates formed by 2 RBC ([4]; 200 μg per tube): 9%; percent free red blood cells (size 1) ([4]; 200 μg per tube): 88%; inhibition at 100 mg/kg [5]: 61.3%; percent antalgia [6]: 68%; mean percent antalgia after 30 min. [7]: 70%; mean percent antalgia after 1 hr [7]: 65%; mean percent antalgia after 2 hrs [7]: 60%; mean percent antalgia after 3 hrs [7]: 55%; inhibition at 100 mg/kg [8]: 91.7%
